Assay [1] is described as follows: Inhibition of recombinant Plasmodium falciparum FLN expressed in Escherichia coli BL21 using Dabcyl-HKRHSFRMRG-EDANS as substrate incubated for 10 mins by fluorecence assay.
The test system of another assay is Plasmodium falciparum. As to the kind of experiment: Antiplasmodial activity against Plasmodium falciparum 3D7 infected in human red blood cells assessed as reduction in parasitemia measured after 70 to 80 hrs by SYBR Green dye based assay. The assay is classed as functional, organism-based, RBC. The following applies: 3D7, Erythrocyte.

The IC50 is the concentration at which inhibition is half-maximal. Broadly, the EC50 is the concentration needed to bring the measured effect to its halfway point. Take `C[C@@H](c1cc(=O)[nH]c(N[C@H]2CCc3ccccc32)n1)n1ncc2ccccc2c1=O`: the concentration for half-maximal inhibition (IC50) in assay [1] was more than 25 µM. Also, the EC50 in the assay on Plasmodium falciparum was more than 25 µM.

In the case of `O=C(NN1C(=O)c2cccc3cccc(c23)C1=O)NN1C(=O)c2cccc3cccc(c23)C1=O`, the IC50 in assay [1] is more than 25 µM. The EC50 with Plasmodium falciparum is more than 25 µM.

With `O=c1/c(=C/c2ccc(/C=c3\sc4nc5ccccc5n4c3=O)cc2)sc2nc3ccccc3n12`, the IC50 in assay [1] is more than 25 µM. Besides, the EC50 in the assay with Plasmodium falciparum was more than 25 µM.

Consider `O=C(Nc1ccc(Cl)cc1)Nc1nnc2nc(CC(=O)c3ccc4ccccc4c3)c(=O)[nH]n12`, for which the IC50 in assay [1] turned out to be 19 µM. The EC50 in the assay on Plasmodium falciparum turned out to be 12 µM.

On to `O=C1Oc2ccccc2C(=O)Oc2ccccc2C(=O)Oc2ccccc2C(=O)Oc2ccccc21`, for which the IC50 in assay [1] is more than 25 µM. Further, the EC50 in the assay with Plasmodium falciparum is more than 25 µM.

Take `O=C1NC(=O)C(c2ccccc2)(c2ccccc2)[C@@H]2C[C@@H]3c4[nH]c5ccccc5c4CCN3C[C@H]12`: the IC50 in assay [1] is 12 µM. For the same molecule, in the assay on Plasmodium falciparum, the EC50 was found to be 1.7 µM.

On to `Cc1nn(-c2cccc(C(=O)N3CCN(C)C(=O)C3)c2)c(=O)c2ccccc12`, for which the IC50 in assay [1] was more than 25 µM. For the same molecule, the EC50 with Plasmodium falciparum is more than 25 µM.

In the case of `Cc1cc2cc(CCNC(=O)c3ccc4ccccc4c3)c(=O)[nH]c2cc1C`, the half-maximal inhibitory concentration (IC50) in assay [1] is more than 25 µM. Further, the half-maximal effective concentration (EC50) in the assay on Plasmodium falciparum came out at 5.5 µM.

Turning to `O=C(Nc1nc2ccccc2[nH]1)c1cc(-c2ccccn2)nc2ccccc12`, the IC50 in assay [1] is more than 25 µM. The 50% effective concentration (EC50) with Plasmodium falciparum was 14.9 µM.

`O=c1cc(CN2CCc3n[nH]c(-c4cccc5ccccc45)c3C2)[nH]c(=O)[nH]1`: in assay [1], the concentration for half-maximal inhibition (IC50) was more than 25 µM. Further, the EC50 in the assay on Plasmodium falciparum was more than 25 µM.

With `c1cnc2c(c1)CN(c1nc(-c3c[nH]c4ccccc34)nc3c1CNC3)CC2`, the IC50 in assay [1] is 21 µM. In addition, the EC50 in the assay on Plasmodium falciparum was 4.4 µM.

`O=C(c1ccc2c3c(cccc13)CC2)[C@H]1CCCN(Cc2cc(=O)[nH]c(=O)[nH]2)C1`: the IC50 in assay [1] is more than 25 µM. In addition, in the assay on Plasmodium falciparum, the concentration for a half-maximal effect (EC50) was more than 25 µM.

With `Cc1cccc(NC(=O)Cn2c(C)cc(=O)n3nc(-c4cccc(C)c4)nc23)c1`, the IC50 in assay [1] is more than 25 µM. Moreover, in the assay on Plasmodium falciparum, the EC50 was more than 25 µM.

Regarding `CN1CCC2(CC1)Oc1ccccc1[C@H]1CC(c3cccc4ccccc34)=NN12`, the IC50 in assay [1] is more than 25 µM. Also, the EC50 in the assay with Plasmodium falciparum was 3.8 µM.

In the case of `Cc1nc2ccccc2c(=O)n1Cc1noc(-c2cc3ccccc3oc2=O)n1`, the IC50 in assay [1] was more than 25 µM. The EC50 in the assay on Plasmodium falciparum was more than 25 µM.

For `O=C(c1cc(-c2cccc3cccnc23)cc(-n2cnnn2)c1)N1CCCCC1`, the half-inhibitory concentration (IC50) in assay [1] was more than 25 µM. Also, in the assay with Plasmodium falciparum, the EC50 was more than 25 µM.

`Cc1ccc(-c2nc3cccnc3n2CCNC(=O)Nc2ccccc2F)cc1`: in assay [1], the IC50 was more than 25 µM. The EC50 in the assay on Plasmodium falciparum is more than 25 µM.

On to `C[C@H]1CCc2[nH]c3ccc(C(=O)NC[C@H]4COc5ccccc5O4)cc3c2C1`, for which the half-inhibitory concentration (IC50) in assay [1] was more than 25 µM. Further, the EC50 in the assay on Plasmodium falciparum was found to be 9.1 µM.

With `O=C(Cn1cc(-c2nnc(-c3ccccc3)o2)c2ccccc21)Nc1ccccc1`, in assay [1], the IC50 came out at 12 µM. Also, the EC50 with Plasmodium falciparum was more than 25 µM.

Take `CC(=O)n1cc([C@H]2CC(=O)OC3=C2C(=O)c2ccccc23)c2ccccc21`: in assay [1], the IC50 came to 11 µM. In the assay with Plasmodium falciparum, the half-maximal effective concentration (EC50) was more than 25 µM.

With `Nc1c(C(=O)Nc2ccc3c(c2)C(=O)c2ccccc2C3=O)ccc2c1C(=O)c1ccccc1C2=O`, the IC50 in assay [1] was found to be 1.76 µM. Also, in the assay on Plasmodium falciparum, the EC50 was more than 25 µM.

With `Cc1cccc(-c2nc3c4ccccc4nc(NCCc4ccccc4)n3n2)c1`, the IC50 in assay [1] is more than 25 µM. Further, the EC50 in the assay with Plasmodium falciparum worked out at 5.3 µM.

With `Cc1ccc(N2C[C@@H](c3nc(-c4ccc5oc(C)nc5c4)no3)CC2=O)cc1`, the IC50 in assay [1] was more than 25 µM. Also, the concentration giving a half-maximal response (EC50) in the assay with Plasmodium falciparum is more than 25 µM.

For the molecule `O=C1/C(=c2/c3ccccc3n3c(=O)c4ccccc4nc23)Nc2ccccc21`, the IC50 in assay [1] is more than 25 µM. In the assay on Plasmodium falciparum, the EC50 worked out at 5.1 µM.

Consider `Cn1nc(C(=O)NCc2ccccc2)c2c1CCN(Cc1cc3ccccc3[nH]1)C2`, for which, in assay [1], the half-maximal inhibitory concentration (IC50) was more than 25 µM. Besides, in the assay with Plasmodium falciparum, the EC50 came to 3.8 µM.

Consider `C[C@@H]1Cc2cc(-c3cc(CC(=O)N=c4[nH]c5ccccc5[nH]4)no3)ccc2O1`, for which, in assay [1], the IC50 is more than 25 µM. Moreover, the EC50 in the assay on Plasmodium falciparum was more than 25 µM.

For `Cc1ccc(-c2noc(CSc3nc(O)cc(-c4ccccc4)n3)n2)cc1C`, in assay [1], the IC50 was more than 25 µM. In the assay on Plasmodium falciparum, the EC50 is more than 25 µM.

With `CC1=C(C(=O)Nc2ccccc2C)[C@H](c2ccc3c(c2)OCO3)n2ncnc2N1`, the IC50 in assay [1] was more than 25 µM. Moreover, in the assay on Plasmodium falciparum, the EC50 was more than 25 µM.

Consider `Cc1c(C(=O)NCCc2nc3ccccc3[nH]2)oc2c1ccc1ccccc12`, for which the IC50 in assay [1] was more than 25 µM. Moreover, the EC50 in the assay with Plasmodium falciparum was determined as 3 µM.

As for `O=C1c2ccc3c(c2CC12Cc1ccc4c(c1C2=O)CCCC4)CCCC3` (stereo not given), the IC50 in assay [1] was more than 25 µM. Moreover, the EC50 with Plasmodium falciparum is more than 25 µM.

The values above are taken from ChEMBL document CHEMBL5030551, “Identification of Plasmodium falciparum falcilysin inhibitors by a virtual screen” (Bioorg Med Chem Lett, 2021).
